Type in all cases: functional
One assay deals with PC-3. In words: Cytotoxicity against human PC3 cells assessed as growth inhibition at 50 uM after 48 hrs by sulforhodamine B assay relative to control. Particulars: PC-3, 48 h, read-out: GI.
A further assay has as its system HCT-116. The experiment in a line: Cytotoxicity against human HCT116 cells assessed as growth inhibition at 50 uM after 48 hrs by sulforhodamine B assay relative to control. Particulars: HCT-116, 48 h, read-out: GI. For orientation: The SRB assay estimates cell density from bound dye.
For the next assay, the system named is COLO 205. In words: Cytotoxicity against human COLO205 cells assessed as growth inhibition at 50 uM after 48 hrs by sulforhodamine B assay relative to control. Particulars: COLO 205, 48 h, read-out: GI.
A further assay deals with THP-1. The experiment in a line: Cytotoxicity against human THP1 cells assessed as growth inhibition at 50 uM after 48 hrs by sulforhodamine B assay relative to control. To be noted: THP-1, 48 h, read-out: GI.

With `COc1cc(/C=C/C(=O)/C=C/c2ccc([N+](=O)[O-])cc2)ccc1OCc1cn(CCN2C(=O)C(=O)c3cc(Br)ccc32)nn1`, the inhibition of growth at 50 µM in the assay with PC-3, in the assay on HCT-116 and in the assay with COLO 205 was 10% in each case.
Take `COc1cc(/C=C/C(=O)/C=C/c2ccc(Cl)cc2)ccc1OCc1cn(CCN2C(=O)C(=O)c3ccccc32)nn1`: the inhibition of growth at 50 µM in the assay with PC-3 is 45%; with HCT-116, 51%; with COLO 205, 50%; in the assay with THP-1 it was 49%.
Turning to `COc1ccccc1/C=C/C(=O)/C=C/c1ccc(OCc2cn(CCN3C(=O)C(=O)c4cc(Br)ccc43)nn2)c(OC)c1`, the inhibition of growth at 50 µM in the assay on PC-3 amounted to 42%; in the assay on HCT-116, 50%; with COLO 205, 47%; in the assay with THP-1, 43%.
For `COc1cc(/C=C/C(=O)/C=C/c2ccc([N+](=O)[O-])cc2)ccc1OCc1cn(CCN2C(=O)C(=O)c3ccccc32)nn1`, the inhibition of growth at 50 µM with PC-3 stood at 33%; with HCT-116, 39%; in the assay with COLO 205, 35%; in the assay with THP-1 it was 35%.
Consider `COc1cc(/C=C/C(=O)/C=C/c2ccc([N+](=O)[O-])cc2)ccc1OCc1cn(CCN2C(=O)C(=O)c3cc(Cl)ccc32)nn1`, for which the inhibition of growth at 50 µM came out at 10% with PC-3 and 11% in the assay on HCT-116.
Take `COc1cc(/C=C/C(=O)/C=C/c2ccco2)ccc1OCc1cn(CCN2C(=O)C(=O)c3cc(Br)ccc32)nn1`: the inhibition of growth at 50 µM with PC-3 was found to be 31%; in the assay on HCT-116, 39%; in the assay with COLO 205, 33%; in the assay on THP-1 it was 37%.
In the same order, the values of `COc1cc(/C=C/C(=O)/C=C/c2ccco2)ccc1OCc1cn(CCN2C(=O)C(=O)c3cc(Cl)ccc32)nn1` are 40%, 47%, 39% and 41%.
As to `COc1cc(/C=C/C(=O)/C=C/c2cccs2)ccc1OCc1cn(CCN2C(=O)C(=O)c3cc(Cl)ccc32)nn1`, the inhibition of growth at 50 µM amounted to 37% with PC-3, 44% in the assay with HCT-116, 35% in the assay with COLO 205 and 38% in the assay on THP-1.
Turning to `COc1cc(/C=C/C(=O)/C=C/c2cccs2)ccc1OCc1cn(CCN2C(=O)C(=O)c3cc(Br)ccc32)nn1`, the inhibition of growth at 50 µM in the assay on PC-3 came to 28%; in the assay with HCT-116, 34%; in the assay with COLO 205, 30%; with THP-1, 31%.
The corresponding values for `COc1cc(/C=C/C(=O)/C=C/c2ccc(Br)cc2)ccc1OCc1cn(CCN2C(=O)C(=O)c3ccccc32)nn1` are 44%, 49%, 47% and 48%.
For `COc1cc(/C=C/C(=O)/C=C/c2ccc(Br)cc2)ccc1OCc1cn(CCN2C(=O)C(=O)c3cc(Br)ccc32)nn1`, the inhibition of growth at 50 µM in the assay with PC-3 was 17%; with HCT-116, 20%; in the assay on COLO 205 it was 19%; with THP-1, 21%.
Regarding `COc1cc(/C=C/C(=O)/C=C/c2ccc(Cl)cc2)ccc1OCc1cn(CCN2C(=O)C(=O)c3cc(Cl)ccc32)nn1`, the inhibition of growth at 50 µM is 25% in the assay with PC-3, 36% in the assay with HCT-116, 29% in the assay on COLO 205 and 30% in the assay with THP-1.
Consider `COc1cc(/C=C/C(=O)/C=C/c2ccc(Br)cc2)ccc1OCc1cn(CCN2C(=O)C(=O)c3cc(Cl)ccc32)nn1`, for which the inhibition of growth at 50 µM came out at 23% in the assay with PC-3, 24% in the assay with HCT-116, 20% in the assay with COLO 205 and 25% in the assay on THP-1.

The record behind these values is ChEMBL document CHEMBL3627713, “Triazole linked mono carbonyl curcumin-isatin bifunctional hybrids as novel anti tubulin agents: Design, synthesis, biological evaluation and molecular modeling studies” (Bioorg Med Chem, 2015).
